Assay results from ChEMBL document CHEMBL1141990, “Effects of suberoylanilide hydroxamic acid and trichostatin A on induction of cytochrome P450 enzymes and benzo[a]pyrene DNA adduct formation in human cells” (2005).

What was measured:
Type in all cases: functional
MCF7 [1] = experiment: Average fold change in expression of CYP1B1 after treatment with compound of concentration 1 mM in human MCF-7 cells
MCF7 [2] = experiment: Average fold change in expression of CYP1A1 after treatment with compound of concentration 0.1 mM in human MCF-7 cells
MCF7 [3] = experiment: Average fold change in expression of CYP1B1 after treatment with compound of concentration 0.1 mM in human MCF-7 cells
MCF7 [4] = experiment: Average fold change in expression of CYP1A1 after treatment with compound of concentration 0.01 mM in human MCF-7 cells
MCF7 [5] = experiment: Average fold change in expression of CYP1B1 after treatment with compound of concentration 0.01 mM in human MCF-7 cells
MCF7 [6] = experiment: Average fold change in expression of CYP1A1 after treatment with compound of concentration 1 mM in human MCF-7 cells
MCF7 [7] = experiment: Average fold change in expression of CYP1A1 after co-treatment with compound of concentration 1 mM in human MCF-7 cells
MCF7 [8] = experiment: Average fold change in expression of CYP1B1 after co-treatment with compound of concentration 1 mM in human MCF-7 cells
MCF7 [9] = experiment: Average fold change in expression of CYP1A1 at 1 mM after co-treatment with compound and TSA in human MCF-7 cells
MCF7 [10] = experiment: Average fold change in expression of CYP1B1 at 1 mM after co-treatment with compound and TSA in human MCF-7 cells
MCF7 [11] = experiment: Average fold change in expression of CYP1A1 at 1 mM after co-treatment with compound and SAHA in human MCF-7 cells
MCF7 [12] = experiment: Average fold change in expression of CYP1B1 at 1 mM after co-treatment with compound and SAHA in human MCF-7 cells
MCF7 [13] = experiment: Mean B[a]P DNA binding at 4 uM after co-treatment with compound and TSA (2 uM) in human MCF-7 cells
MCF7 [14] = experiment: Mean B[a]P DNA binding at 4 uM after co-treatment with compound and SAHA (2 uM) in human MCF-7 cells
MCF7 [15] = experiment: Mean B[a]P DNA binding at 4 uM in human MCF-7 cells

Structure (SMILES) | Fold change (MCF7 [1]) | Fold change (MCF7 [2]) | Fold change (MCF7 [3]) | Fold change (MCF7 [4]) | Fold change (MCF7 [5]) | Fold change (MCF7 [6]) | Fold change (MCF7 [7]) | Fold change (MCF7 [8]) | Fold change (MCF7 [9]) | Fold change (MCF7 [10]) | Fold change (MCF7 [11]) | Fold change (MCF7 [12]) | Activity (MCF7 [13]) [pmol adducts/mg DNA] | Activity (MCF7 [14]) [pmol adducts/mg DNA] | Activity (MCF7 [15]) [pmol adducts/mg DNA]
O=C(CCCCCCC(=O)Nc1ccccc1C(=O)NO)Nc1ccccc1 | 1.58 | 2.86 | 1.62 | 0.77 | 1.1 | 0.98 |  |  |  |  |  |  |  |  | 
c1ccc2c(c1)cc1ccc3cccc4ccc2c1c34 [BENZO[DEF]CHRYSENE] | 4.35 | 3.69 | 1.7 | 1.85 | 1.36 | 25.24 | 25.55 | 4.39 | 8.77 | 1.02 | 22.92 | 2.4 | 54.15 | 52.18 | 34.75
CC(/C=C/C(=O)NO)=C\[C@@H](C)C(=O)c1ccc(N(C)C)cc1 [TRICHOSTATIN] | 0.17 | 0.81 | 1.57 | 0.77 | 1.29 | 3.1 |  |  |  |  |  |  |  |  | 
